What was measured:
[1] = test system: human peripheral blood mononuclear cells (PBMC); assay: T-cell proliferation assay (BrdU ELISA), PBMC stimulated with anti-CD3 mAb + anti-CD28 mAb; format: cell-based; conditions: anti-CD3 mAb (0.1 μg/ml)+anti-CD28 mAb (1 μg/ml); for inhibition at 10 µM: Homo sapiens, PBMC
[2] = test system: human peripheral blood mononuclear cells (PBMC); assay: T-cell proliferation assay (BrdU ELISA), PBMC stimulated with SEB; format: cell-based; conditions: SEB (0.1 μg/ml)
[3] = Example 1, 200000 cells/well, HC 10 μM, ASM 30 nM, BETA 300 nM
[4] = Example 2, 100000 cells/well, HC 10 μM, ASM 30 nM, BETA 300 nM
[5] = Example 3, 50000 cells/well, HC 10 μM, ASM 30 nM, BETA 300 nM
[6] = Example 13, 200000 cells/well, HC 10 μM, FK 30 nM, BETA 300 nM

SMILES: C[C@@H]1C[C@H]2[C@@H]3CCC4=CC(=O)C=C[C@]4(C)[C@@]3(F)[C@@H](O)C[C@]2(C)[C@@]1(O)C(=O)CO [DEX, dexamethasone]
- Normalized OD (% STIM-C) ([1]; Example 6, 200000 cells/well, DEX 300 nM, ASM 30 nM, BETA 300 nM): 87.2 % STIM-C
- Normalized OD (% STIM-C) ([1]; Example 7, 100000 cells/well, DEX 300 nM, ASM 30 nM, BETA 300 nM): 76.5 % STIM-C
- Normalized OD (% STIM-C) ([1]; Example 8, 50000 cells/well, DEX 300 nM, ASM 30 nM, BETA 300 nM): 82.2 % STIM-C
- Normalized OD (% STIM-C) ([1]; Example 11, 100000 cells/well, DEX 300 nM, ASM 30 nM): 76.3 % STIM-C
- Normalized OD (% STIM-C) ([1]; Example 15, 200000 cells/well, DEX 300 nM, FK 30 nM, BETA 300 nM): 87.2 % STIM-C
- Normalized OD (% STIM-C) ([1]; Example 16, 100000 cells/well, DEX 300 nM, FK 30 nM, BETA 300 nM): 76.5 % STIM-C
- Normalized OD (% STIM-C) ([1]; Example 17, 50000 cells/well, DEX 300 nM, FK 30 nM, BETA 300 nM): 82.2 % STIM-C
- Normalized OD (% STIM-C) ([1]; Example 18, 100000 cells/well, DEX 300 nM, FK 30 nM): 76.3 % STIM-C
- Normalized OD (% STIM-C) ([1]; Example 23, 200000 cells/well, DEX 300 nM, CsA 300 nM, BETA 300 nM, DEX (300 nM)+CsA (30 nM), BETA (300 nM)+CsA (300 nM)): 87.2 % STIM-C
- Normalized OD (% STIM-C) ([1]; Example 24, 100000 cells/well, DEX 300 nM, CsA 300 nM, BETA 300 nM, DEX (300 nM)+CsA (30 nM), BETA (300 nM)+CsA (300 nM)): 76.5 % STIM-C
- Normalized OD (% STIM-C) ([1]; Example 25, 50000 cells/well, DEX 300 nM, CsA 300 nM, BETA 300 nM, DEX (300 nM)+CsA (30 nM), BETA (300 nM)+CsA (300 nM)): 82.2 % STIM-C
- Normalized OD (% STIM-C) ([1]; Example 27, 100000 cells/well, DEX 300 nM, CsA 300 nM): 76.3 % STIM-C
- Normalized OD (% STIM-C) ([2]; Example 9, 200000 cells/well, DEX 300 nM, ASM 30 nM, BETA 300 nM): 101.5 % STIM-C
- Normalized OD (% STIM-C) ([2]; Example 10, 100000 cells/well, DEX 300 nM, ASM 30 nM, BETA 300 nM): 86.4 % STIM-C
- Normalized OD (% STIM-C) ([2]; Example 12, 100000 cells/well, DEX 300 nM, ASM 30 nM): 105.7 % STIM-C
- Normalized OD (% STIM-C) ([2]; Example 26, 200000 cells/well, DEX 300 nM, CsA 300 nM, BETA 300 nM, DEX (300 nM)+CsA (30 nM), BETA (300 nM)+CsA (300 nM)): 101.5 % STIM-C

SMILES: C[C@]12CCC(=O)C=C1CC[C@@H]1[C@@H]2[C@@H](O)C[C@@]2(C)[C@H]1CC[C@]2(O)C(=O)CO [HC, hydrocortisone]
- Normalized OD (% STIM-C) [1, 3]: 106.8 % STIM-C
- Normalized OD (% STIM-C) [1, 4]: 92.0 % STIM-C
- Normalized OD (% STIM-C) [1, 5]: 109.0 % STIM-C
- Normalized OD (% STIM-C) [1, 6]: 106.8 % STIM-C
- Normalized OD (% STIM-C) ([1]; Example 14, 100000 cells/well, HC 10 μM, FK 30 nM, BETA 300 nM): 92.0 % STIM-C
- Normalized OD (% STIM-C) ([1]; Example 19, 200000 cells/well, HC 10 μM, CsA 300 nM, BETA 300 nM, HC (10 μM)+CsA (30 nM), BETA (300 nM)+CsA (300 nM)): 106.8 % STIM-C
- Normalized OD (% STIM-C) ([1]; Example 20, 100000 cells/well, HC 10 μM, CsA 300 nM, BETA 300 nM, HC (10 μM)+CsA (30 nM), BETA (300 nM)+CsA (300 nM)): 92.0 % STIM-C
- Normalized OD (% STIM-C) ([1]; Example 21, 50000 cells/well, HC 10 μM, CsA 300 nM, BETA 300 nM, HC (10 μM)+CsA (30 nM), BETA (300 nM)+CsA (300 nM)): 109.0 % STIM-C
- inhibition at 10 µM [1, 3]: -7.4%
- inhibition at 10 µM [1, 4]: < 17%
- inhibition at 10 µM [1, 5]: -9.7%
- inhibition at 10 µM [1, 6]: -7.4%
- Normalized OD (% STIM-C) ([2]; Example 4, 200000 cells/well, HC 10 μM, ASM 30 nM, BETA 300 nM): 89.0 % STIM-C
- Normalized OD (% STIM-C) ([2]; Example 5, 100000 cells/well, HC 10 μM, ASM 30 nM, BETA 300 nM): 100.5 % STIM-C
- Normalized OD (% STIM-C) ([2]; Example 22, 200000 cells/well, HC 10 μM, CsA 300 nM, BETA 300 nM, HC (10 μM)+CsA (30 nM), BETA (300 nM)+CsA (300 nM)): 89.0 % STIM-C
